# Results: PubChem BioAssay AID2060621 (Molecular Pharmacology Branch, DTP, NCI, 2025)
# Values joined by “and” are separate entries in the source; they are usually repeats but may differ in a detail not shown here. Identical values can stand only once.
# Test system: 324938-238-R-J1-PDC complex spheroids viability
# Assay: Anticancer human tumor 324938-238-R-J1-PDC patient-derived bladder carcinoma cell line growth inhibition [CLK]
# Details: for viability, T/C: stronger effect = lower value
# Excerpt: A high-throughput screen of multi-cell type tumor spheroids was designed to identify active combinations of […] and targeted small molecules. Complex spheroids include a stromal component modeled by human endothelial cells (HUVEC) and fibroblasts modeled by human mesenchymal stem cells (MSCs). The concentration ranges selected for each drug and investigational agent were based upon clinically achievable concentrations if the clinical Cmax of the agent was known.
# Compounds. The drugs and investigational agents: cirtuvivint (SM08502; NSC835563), CC-671 (NSC850746), vemurafenib (NSC761431), tapotoclax (NSC804041), sotorasib (NSC818433), adagrasib (NSC831453), MRTX-1133 (NSC836407), BAY2416964 (NSC825713), copanlisib (NSC816437), inavolisib (NSC800729), abemaciclib (NSC768073), osimertinib (NSC779217), entinostat (NSC756642), eltanexor (KPT-8602, NSC794443), venetoclax (NSC766270), ceralasertib (NSC777638), bortezomib (NSC756655), olaparib (NSC753686), talazoparib (NSC767125), alisertib (NSC759677), peposertib (NSC802822), gemcitabine (NSC613327), 5-fluorouracil (NSC19893), SN-38 (NSC673596), oxaliplatin (NSC266046), paclitaxel (NSC125973), and doxorubicin (NSC123127), were obtained from the National Cancer Institute (NCI) Developmental Therapeutics Program Chemical Repository. The FDA-approved anticancer drug set is available from the Developmental Therapeutics Program at https://dtp.cancer.gov/organization/dscb/obtaining/available plates.htm. […] The stock solutions were prepared in dimethyl sulfoxide (DMSO, Sigma-Aldrich, St. Louis, MO, cat. D2650), except for the platinum complexes which were prepared in saline (Quality Biological, Gaithersburg, MD, cat. 114-055-101), at 800-fold the tested concentration and stored at -70 degrees C prior to their use. All drugs and investigational agents were tested over a range starting from a high concentration at or near the clinical Cmax and decreasing in half-log increments. If the clinical Cmax for an agent had not been determined, the highest concentration tested was 10 microM.
# Cell Culture. All cells were maintained in an incubator at 37 degrees C and 5% CO2 with 95% humidity. The PDC lines were cultured according to standard operating procedures established by the NCI PDMR. Briefly, all PDCs were thawed and cultured in Matrigel-coated flasks prepared with a working solution of 1X Ham's F-12 nutrient mix, without supplementation (Invitrogen, Waltham, MA, cat. 11765054), 100 U/mL penicillin-streptomycin (Invitrogen, cat. 15140122), and 2.5% Matrigel (Corning Inc., Corning, NY, cat. 354248) for the first three passages. The 947758-054-R-J2-PDC line was cultured in 6B/Colon 1A media, which includes advanced DMEM/F-12 (Thermo Fisher Scientific, cat. 12634028), 10 mM HEPES (Thermo Fisher Scientific, cat. 15630080), 1X GlutaMAX supplement (Thermo Fisher Scientific, cat. 35050061), 0.1 mg/mL primocin (InvivoGen, cat. ant-pm-2), 10% defined fetal bovine serum, heat inactivated (HyClone Laboratories Inc., cat. SH30070.03HI), 1.25 mM N-Acetyl-L-cysteine (Sigma-Aldrich, cat. A9165), 10 mM nicotinamide (Sigma-Aldrich, cat. N0636), 1X B-27 supplement (Thermo Fisher Scientific, cat. 17504044), 1X N-2 supplement (Thermo Fisher Scientific, cat. 17502048), and 10 microM Y-27632 dihydrochloride (Tocris Bioscience, cat. 1254). The 876862-298-R-J1-PDC was cultured in 6E media, which includes all 6B/Colon 1A media components plus 50% L-WRN conditioned media (ATCC, cat. CRL-3276), 50 ng/mL recombinant human EGF recombinant protein (hEGF; Thermo Fisher Scientific, cat. PHG0311), 10 ng/mL recombinant human fibroblast growth factor 10 (hGFG-10; PeproTech, cat. 100-26), 1 ng/mL recombinant human fibroblast growth factor 2 (hFGF-2; PeproTech, cat. 100-18B), and 1 µM prostaglandin E2 (PGE2; Tocris, cat. 2296). The 227483-062-R1-J1-PDC line was cultured in Panc media, containing all 6E components except hFGF-2, with the addition of 500 nM SB-431542 (Selleckchem, cat. S1067) and 10 nM gastrin (Tocris, cat. 3006). […]
# [1] = curve of first compound, second compound 0.0316 µM
# [2] = curve of first compound, second compound 0.1 µM
# [3] = curve of first compound, second compound 0.316 µM
# [4] = curve of first compound, second compound 1 µM
# [5] = curve of first compound, second compound 3.16 µM
# [6] = curve of first compound, second compound 10 µM
# [7] = second compound 0.0316 µM, first compound 0.0316 µM
# [8] = second compound 0.0316 µM, first compound 0.1 µM
# [9] = second compound 0.0316 µM, first compound 0.316 µM
# [10] = second compound 0.0316 µM, first compound 1 µM
# [11] = second compound 0.0316 µM, first compound 3.16 µM
# [12] = second compound 0.0316 µM, first compound 10 µM
# [13] = second compound 0.1 µM, first compound 0.0316 µM
# [14] = second compound 0.1 µM, first compound 0.1 µM
# [15] = second compound 0.1 µM, first compound 0.316 µM
# [16] = second compound 0.1 µM, first compound 1 µM
# [17] = second compound 0.1 µM, first compound 3.16 µM
# [18] = second compound 0.1 µM, first compound 10 µM
# [19] = second compound 0.316 µM, first compound 0.0316 µM
# [20] = second compound 0.316 µM, first compound 0.1 µM
# [21] = second compound 0.316 µM, first compound 0.316 µM
# [22] = second compound 0.316 µM, first compound 1 µM
# [23] = second compound 0.316 µM, first compound 3.16 µM
# [24] = second compound 0.316 µM, first compound 10 µM
# [25] = second compound 1 µM, first compound 0.0316 µM
# [26] = second compound 1 µM, first compound 0.1 µM
# [27] = second compound 1 µM, first compound 0.316 µM
# [28] = second compound 1 µM, first compound 1 µM
# [29] = second compound 1 µM, first compound 3.16 µM
# [30] = second compound 1 µM, first compound 10 µM
# [31] = second compound 3.16 µM, first compound 0.0316 µM
# [32] = second compound 3.16 µM, first compound 0.1 µM
# [33] = second compound 3.16 µM, first compound 0.316 µM
# [34] = second compound 3.16 µM, first compound 1 µM
# [35] = second compound 3.16 µM, first compound 3.16 µM
# [36] = second compound 3.16 µM, first compound 10 µM
# [37] = second compound 10 µM, first compound 0.0316 µM
# [38] = second compound 10 µM, first compound 0.1 µM
# [39] = second compound 10 µM, first compound 0.316 µM
# [40] = second compound 10 µM, first compound 1 µM
# [41] = second compound 10 µM, first compound 3.16 µM
# [42] = second compound 10 µM, first compound 10 µM
# 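Note: viability read after seven days of drug exposure.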
# 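Throughout, for viability, T/C: 100% = DMSO vehicle control wells.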
smiles,measurement,setting,value
Nc1ccccc1NC(=O)c1ccc(CNC(=O)OCc2cccnc2)cc1,"viability, T/C",compound 0.0316 µM,90% and 75.9%
same,"viability, T/C",compound 0.1 µM,89.8% and 91.8%
same,"viability, T/C",compound 0.316 µM,83.1% and 73.8%
same,"viability, T/C",compound 1 µM,58% and 50.5%
same,"viability, T/C",compound 3.16 µM,29.4% and 33.5%
same,"viability, T/C",compound 10 µM,9.64% and 5.66%
same,IC50,curve of compound,1420 nM and 1290 nM
Nc1ccccc1NC(=O)c1ccc(CNC(=O)OCc2cccnc2)cc1 + CNC(=O)c1ccc(Nc2nc(OC3CCCC3)c3c(-c4ccc5nc(C)oc5c4)c[nH]c3n2)c(OC)c1,IC50,[1],1470 nM
same,IC50,[2],< 31.6 nM
same,IC50,[3],< 31.6 nM
same,IC50,[4],< 31.6 nM
same,IC50,[5],< 31.6 nM
same,IC50,[6],< 31.6 nM
same,"viability, T/C",[7],78.2%
same,"viability, T/C",[8],91.8%
same,"viability, T/C",[9],69%
same,"viability, T/C",[10],57.2%
same,"viability, T/C",[11],35%
same,"viability, T/C",[12],5.41%
same,"viability, T/C",[13],31.1%
same,"viability, T/C",[14],32.7%
same,"viability, T/C",[15],30.4%
same,"viability, T/C",[16],34%
same,"viability, T/C",[17],32.6%
same,"viability, T/C",[18],4.92%
same,"viability, T/C",[19],15.1%
same,"viability, T/C",[20],17%
same,"viability, T/C",[21],15.8%
same,"viability, T/C",[22],23.2%
same,"viability, T/C",[23],26.1%
same,"viability, T/C",[24],3.89%
same,"viability, T/C",[25],14.2%
same,"viability, T/C",[26],14.6%
same,"viability, T/C",[27],16.7%
same,"viability, T/C",[28],23.7%
same,"viability, T/C",[29],26.2%
same,"viability, T/C",[30],2.44%
same,"viability, T/C",[31],13%
same,"viability, T/C",[32],15.2%
same,"viability, T/C",[33],18.6%
same,"viability, T/C",[34],18.9%
same,"viability, T/C",[35],26.2%
same,"viability, T/C",[36],2.46%
same,"viability, T/C",[37],15.2%
same,"viability, T/C",[38],17.1%
same,"viability, T/C",[39],19%
same,"viability, T/C",[40],20.7%
same,"viability, T/C",[41],25.8%
same,"viability, T/C",[42],2.14%
Cn1ncnc1[C@H]1c2n[nH]c(=O)c3cc(F)cc(c23)N[C@@H]1c1ccc(F)cc1,"viability, T/C",compound 0.000316 µM,84.5% and 92.7%
same,"viability, T/C",compound 0.001 µM,78.8% and 76.2%
same,"viability, T/C",compound 0.00316 µM,60% and 68.3%
same,"viability, T/C",compound 0.01 µM,50% and 55.5%
same,"viability, T/C",compound 0.0316 µM,37.4% and 33.3%
same,"viability, T/C",compound 0.1 µM,28.4% and 24.7%
same,IC50,curve of compound,9.12 nM and 11.8 nM
COc1ccc([C@@H](O)c2cc(-c3ncnc4cc(N5CCOCC5)ccc34)c(F)cc2Cl)nn1 + CN1CCN(c2cc(C(=O)Nc3cc4cc(-c5cnn(C)c5)ccc4cn3)ccn2)CC1,IC50,[1],2010 nM
same,IC50,[2],57.5 nM
same,IC50,[3],< 31.6 nM
same,IC50,[4],< 31.6 nM
same,IC50,[5],< 31.6 nM
same,IC50,[6],< 31.6 nM
same,"viability, T/C",[7],72%
same,"viability, T/C",[8],78.8%
same,"viability, T/C",[9],65.8%
same,"viability, T/C",[10],59.8%
same,"viability, T/C",[11],44.1%
same,"viability, T/C",[12],34.7%
same,"viability, T/C",[13],53%
same,"viability, T/C",[14],48%
same,"viability, T/C",[15],40.3%
same,"viability, T/C",[16],44.5%
same,"viability, T/C",[17],37.8%
same,"viability, T/C",[18],30.9%
same,"viability, T/C",[19],19.6%
same,"viability, T/C",[20],21.9%
same,"viability, T/C",[21],21.4%
same,"viability, T/C",[22],20.2%
same,"viability, T/C",[23],19%
same,"viability, T/C",[24],18.9%
same,"viability, T/C",[25],0.42%
same,"viability, T/C",[26],0.46%
same,"viability, T/C",[27],0.79%
same,"viability, T/C",[28],0.47%
same,"viability, T/C",[29],1.14%
same,"viability, T/C",[30],0.71%
same,"viability, T/C",[31],0.13%
same,"viability, T/C",[32],0.16%
same,"viability, T/C",[33],0.28%
same,"viability, T/C",[34],0.12%
same,"viability, T/C",[35],0.24%
same,"viability, T/C",[36],0.29%
same,"viability, T/C",[37],0.06%
same,"viability, T/C",[38],0.14%
same,"viability, T/C",[39],0.25%
same,"viability, T/C",[40],0.13%
same,"viability, T/C",[41],0.31%
same,"viability, T/C",[42],0.58%
CC(Nc1ccc2c(c1)OCCn1cc(N3C(=O)OCC3C(F)F)nc1-2)C(N)=O (stereo not given) + CN1CCN(c2cc(C(=O)Nc3cc4cc(-c5cnn(C)c5)ccc4cn3)ccn2)CC1,IC50,[1],167 nM
same,IC50,[2],< 31.6 nM
same,IC50,[3],< 31.6 nM
same,IC50,[4],< 31.6 nM
same,IC50,[5],< 31.6 nM
same,IC50,[6],< 31.6 nM
same,"viability, T/C",[7],65.8%
same,"viability, T/C",[8],58.5%
same,"viability, T/C",[9],40%
same,"viability, T/C",[10],29.9%
same,"viability, T/C",[11],24.4%
same,"viability, T/C",[12],15.8%
same,"viability, T/C",[13],48.2%
same,"viability, T/C",[14],40%
same,"viability, T/C",[15],29.6%
same,"viability, T/C",[16],26.5%
same,"viability, T/C",[17],23.3%
same,"viability, T/C",[18],15.5%
same,"viability, T/C",[19],21.3%
same,"viability, T/C",[20],20.8%
same,"viability, T/C",[21],15.2%
same,"viability, T/C",[22],14.1%
same,"viability, T/C",[23],11.8%
same,"viability, T/C",[24],9.85%
same,"viability, T/C",[25],1.49%
same,"viability, T/C",[26],2.08%
same,"viability, T/C",[27],1.71%
same,"viability, T/C",[28],0.86%
same,"viability, T/C",[29],0.52%
same,"viability, T/C",[30],0.51%
same,"viability, T/C",[31],0.1%
same,"viability, T/C",[32],0.15%
same,"viability, T/C",[33],0.14%
same,"viability, T/C",[34],0.1%
same,"viability, T/C",[35],0.16%
same,"viability, T/C",[36],0.18%
same,"viability, T/C",[37],0.07%
same,"viability, T/C",[38],0.14%
same,"viability, T/C",[39],0.19%
same,"viability, T/C",[40],0.12%
same,"viability, T/C",[41],0.17%
same,"viability, T/C",[42],0.2%
